# Measurements as given in patent US20260215427A1, “NON-BIPYRIDYL SALT HERBICIDE, PREPARATION METHOD THEREFOR, AND USE THEREOF” (priority 2022, published 2026).
# Assays:
# [1] = tested on: Bermuda grass; assay: Herbicidal performance of the compound of formula 3, leaf spray, diquat as positive control; type: in vivo; conditions: air and sunlight
# From the text: Under air and sunlight, the compound of formula 3 of the present invention was sprayed on the surface of leaves, with herbicide diquat as a positive control. The diameter of the observation range was 10 cm.
# [2] = tested on: Acorus calamus; assay: Herbicidal performance, leaf spray under air and sunlight; type: in vivo; conditions: for state of leaves 24 hours after spraying: various concentrations (1, 2, 4, 8 times PQ equivalent), air and sunlight
# From the text: (§1) As is well-known, Bermuda grass, Arabidopsis thaliana, and Acorus calamus are naturalized green weeds in most parts of the world and are also invasive grasses. Photosynthesis occurs throughout their entire leaves and bundles. […] Therefore, Bermuda grass, Acorus calamus, and Arabidopsis thaliana were selected as plant models to evaluate the herbicidal performance of the compounds in the present invention.
# (§2) Under air and sunlight, the compound of formula 2 of the present invention was sprayed on the leaf surface at concentrations of 1, 2, 4, and 8 times the PQ equivalent, respectively. Paraquat herbicide was used as the positive control, and physiological saline was used as the blank control group. The diameter of the observation range was 8 cm.
# [3] = tested on: Arabidopsis thaliana; assay: as above; type: in vivo; conditions: for state of leaves 24 hours after spraying: various concentrations (1, 2, 4, 8 times PQ equivalent), air and sunlight
# From the text: as §1, §2
# [4] = tested on: Bermuda grass; assay: as above; type: in vivo; conditions: for state of leaves 24 hours after spraying: various concentrations (1, 2, 4, 8 times PQ equivalent), air and sunlight
# From the text: as §1, §2
# [5] = tested on: mice; assay: PQ-induced lethality in mice, single intraperitoneal injection, dose and timing finding; type: in vivo
# Description: Firstly, the optimal dose and timing for PQ-induced lethality in mice were determined through single intraperitoneal injection at doses of 20, 30, 40, 50, and 60 (mg/kg). […] Therefore, 50 mg/kg was chosen as the optimal dose. The mouse tissue samples were collected 48 hours after PQ administration.
# [6] = tested on: mice; assay: Acute toxicity test and LD50 determination in mice, intraperitoneal injection; type: in vivo
# Description: (§3) In order to evaluate the safety of compound 2 of the present invention in vivo, acute toxicity tests were conducted on mice. Firstly, the LD50 of diene diamine in mice was measured. […] The toxicity of diene diamine in mice is low and the safety is high.
# [7] = tested on: mice; assay: Survival rate and body weight of mice after intraperitoneal injection; type: in vivo; conditions: 0.19 mmol/kg intraperitoneal
# [8] = tested on: mice; assay: Organ indices and biochemical indicators 48 hours after intraperitoneal injection in mice; type: in vivo; conditions: for levels of SOD and CAT in lung tissue / serum levels of TNF-α, IL-B, IL-6, AST, ALT, SCr, BUN, and uric acid: 50 mg/kg paraquat or same dose, 48 hour; for lung, liver, and kidney indices compared with the control group / cardiac index: 50 mg/kg paraquat or same molar dose, 48 hours; for cardiac index: among the three groups
# From the text: P<0.05 is considered statistically significant, with 10 mice per group (n=10).
# However, no significant differences in these biochemical indicators were detected after intraperitoneal injection of the compound of formula 2 diene diamine at the same molar concentration.
# [9] = tested on: mice; assay: Damage of major organs (histopathology) 48 hours after intraperitoneal injection in mice; type: in vivo; conditions: 48 hours after intraperitoneal administration
# From the text: The data is expressed as mean±standard error, with 6 mice per group (n=6), and P<0.05 indicates statistically significant differences. Scale bar: 50 μm.
# [10] = tested on: mice; assay: Transmission electron microscopy of main organs 48 hours after intraperitoneal injection in mice; type: in vivo; conditions: 0.19 mmol/kg intraperitoneal
# Description: 48 hours after intraperitoneal injection of 0.19 mmol/kg of paraquat or the compound of formula 2, transmission electron microscopy samples of the lung, liver, kidney, and heart were collected. The black arrow indicated mitochondrial damage, and the electron microscopy scale of the heart group was 200 nm, and the electron microscope scale of other groups was 100 nm.
# [11] = tested on: A549 cells; assay: Direct cytotoxicity, cell viability and IC50; type: cell-based; conditions: for cell viability: A549, co-culture 24 hours, concentration gradient
# From the text: (§4) PQ is rapidly absorbed and distributed to the lungs, kidneys, liver, and muscles after entering the human body. Death caused by ingestion of PQ is usually due to multiple organ failure, such as pulmonary edema, kidney and liver failure. Therefore, lung cells (A549 cells), kidney cells (COS-7), and liver cells (Hep G2) were selected to evaluate the direct cytotoxicity of diene diamine.
# [12] = tested on: COS-7 cells; assay: Direct cytotoxicity, cell viability and IC50; type: cell-based; conditions: for cell viability: COS-7, co-culture 24 hours, concentration gradient
# From the text: as §4
# [13] = tested on: Hep G2 cells; assay: Direct cytotoxicity, cell viability and IC50; type: cell-based; conditions: for cell viability: Hep G2, co-culture 24 hours, concentration gradient
# From the text: as §4
# [14] = tested on: A549 cells; assay: Intracellular ROS levels, DCF fluorescence, flow cytometry; type: cell-based; conditions: 100 μM, 18 hours
# Description: (§5) The above three types of cells were exposed to 100 μM PQ (100) and 100 μM of the compound of formula 2 and incubated for 18 hours, and the intracellular reactive oxygen species (ROS) levels were quantified using flow cytometry. Intracellular ROS levels were measured using DCF fluorescence (n=6).
# [15] = tested on: COS-7 cells; assay: as above; type: cell-based; conditions: 100 μM, 18 hours
# Description: as §5
# [16] = tested on: Hep G2 cells; assay: as above; type: cell-based; conditions: 100 μM, 18 hours
# Description: as §5
# [17] = tested on: humans; conditions: background data; cited from earlier work
# [18] = Conversion of the compound of formula 2 to PQ under lighting and air conditions in physiological saline; type: physicochemical; conditions: air; for Yield (conversion to PQ): darkness, 72 h; for Yield (conversion rate to PQ): natural light, 24 h
# [19] = Acute toxicity test and LD50 determination in mice, intraperitoneal injection; type: in vivo; conditions: mouse, in vivo, ip; mice, intraperitoneal injection, seventh day
# Description: as §3
# [20] = Direct cytotoxicity, cell viability and IC50; type: cell-based; conditions: 24 hours
# From the text: as §4
# [21] = tested on: A549 cells; assay: Apoptosis, Annexin V-FITC and propidium iodide staining; type: cell-based; conditions: 24 hours of incubation
# From the text: (§6) The data was expressed as + SEM. *p<0.05, p<0.05, **p<0.01, ***p<0.001, ****p<0.0001.
# [22] = tested on: COS-7 cells; assay: as above; type: cell-based; conditions: 24 hours of incubation
# From the text: as §6
# [23] = tested on: Hep G2 cells; assay: as above; type: cell-based; conditions: 24 hours of incubation
# From the text: as §6
# [24] = tested on: Arabidopsis thaliana; assay: Herbicidal mechanism: LC-MS, chlorophyll and photosystem parameters, electron microscopy after spraying; type: in vivo
# [25] = 300 mg/kg intraperitoneal, 8 mice
# [26] = 600 mg/kg intraperitoneal, 8 mice
# [27] = 900 mg/kg intraperitoneal, 8 mice
# [28] = 1050 mg/kg intraperitoneal, 8 mice
# [29] = 1200 mg/kg intraperitoneal, 8 mice
# [30] = 25 °C, listed as diene diamine compound
compound,measurement,setting,value
"C1=CCN2CCN3CC=CCC3C2C1 (stereo not drawn) [compound of formula 3, 1,4,6,7,9,12,12a, 12b octahydrodipyridin [1,2-a: 2′, 1′-c]pyrazine]",weed control effect relative to diquat,[1],comparable to that of diquat
same,state of leaves 3 days after spraying,[1]; concentration not specified,began to wither
same,state of leaves after 5 days,[1]; concentration not specified,completely withered
"C[n+]1ccc(-c2cc[n+](C)cc2)cc1.[Cl-].[Cl-] [PQ, 1,1-dimethyl-4,4′-bipyridinium dichloride, reference compound]",state of leaves 24 hours after spraying,[2],began to wither
same,state of leaves 24 hours after spraying,[3],began to wither
same,state of leaves 24 hours after spraying,[4],began to wither
same,lung injury score,[5]; 24 hours after PQ administration,significant increase
same,time point of the highest lung injury score,[5]; compared to other time points,48 h
same,survival time,"[5]; single intraperitoneal injection, 20 and 30 mg/kg, all mice",over 168 hours
same,body weight on the first day,"[5]; single intraperitoneal injection, 50 or 60 mg/kg",significant weight loss
same,"Mortality, n (%) Day 1",[6]; [25],0 (0) n (%)
same,"Mortality, n (%) Day 7",[6]; [25],0 (0) n (%)
same,"Mortality, n (%) Day 1",[6]; [26],0 (0) n (%)
same,"Mortality, n (%) Day 7",[6]; [26],0 (0) n (%)
same,"Mortality, n (%) Day 1",[6]; [27],3 (37.5) n (%)
same,"Mortality, n (%) Day 7",[6]; [27],3 (37.5) n (%)
same,"Mortality, n (%) Day 1",[6]; [28],3 (37.5) n (%)
same,"Mortality, n (%) Day 7",[6]; [28],3 (37.5) n (%)
same,"Mortality, n (%) Day 1",[6]; [29],8 (100) n (%)
same,"Mortality, n (%) Day 7",[6]; [29],8 (100) n (%)
same,weight of the mice,[7],continued to decrease
same,mice died,[7]; within 112 hours after administration,100%
same,levels of SOD and CAT in lung tissue,[8],significantly decreased
same,"serum levels of TNF-α, IL-B, IL-6, AST, ALT, SCr, BUN, and uric acid",[8],significantly increased
same,"lung, liver, and kidney indices compared with the control group",[8],significantly increased
same,cardiac index,[8],no statistical difference
same,"pathological damage of major tissues (lung, liver, kidney, heart)",[9],multiple organic damages accompanied by significant inflammation
same,tissue damage scores of the main organs,[9],significantly higher than those in the control group and the diene diamine group
same,"mitochondrial structure in lung, liver, kidney, and heart tissues (transmission electron microscopy)",[10],"mitochondrial damage such as swelling, vacuolization, blurring, or fragmentation"
same,cell viability,[11],direct cytotoxic effects
same,IC50,"[11]; A549 cells, 24 hours",322 µM
same,cell viability,[12],direct cytotoxic effects
same,IC50,"[12]; Cos-7 cells, 24 hours",114 µM
same,cell viability,[13],direct cytotoxic effects
same,IC50,"[13]; hep G2 cells, 24 hours",131 µM
same,intracellular ROS production,[14],significant increase in ROS production
same,intracellular ROS production,[15],significant increase in ROS production
same,intracellular ROS production,[16],significant increase in ROS production
same,mortality rate of toxic ingestion incidents,[17],50-90%
"CN1CC=C(C2=CCN(C)CC2)CC1 [compound of formula 2, 1,1′-dimethyl-1,1′, 2,2′, 3,3′, 6,6′-octahydro-4,4′-bipyridine]",Yield (conversion to PQ),[18]; 25 °C,0%
same,Yield (conversion to PQ),[18]; [30],hardly converted to PQ
same,Yield (conversion rate to PQ),[18]; 25 °C,30%
same,Yield (conversion rate to PQ),[18]; [30],about 30%
same,Yield (conversion rate to PQ),[18]; 40 °C,63%
same,Yield (conversion rate to PQ),"[18]; 40 °C, listed as diene diamine compound",about 63%
same,weed control effect compared with PQ,[2]; same or twice the dose of PQ,slightly delayed weed control effect
same,state of leaves 24 hours after spraying,[2],began to wither
same,weed control effect compared with PQ,[3]; same or twice the dose of PQ,slightly delayed weed control effect
same,state of leaves 24 hours after spraying,[3],began to wither
same,weed control effect compared with PQ,[4]; same or twice the dose of PQ,slightly delayed weed control effect
same,state of leaves 24 hours after spraying,[4],began to wither
same,LD50 at 7 day,[19],1000 mg/kg
same,deaths,[6]; [29],Eight mice died
same,survival,"[6]; 300 and 600 mg/kg intraperitoneal, third day after administration",all mice survived
same,deaths,"[6]; 900 and 1050 mg/kg intraperitoneal, respectively, 8 mice per dose",Three mice died
same,weight of the mice,[7],continued to steadily increase
same,survival,[7]; after 168 hours,all mice in the group of the compound of formula 2 survived
same,levels of SOD and CAT in lung tissue,[8],no significant changes
same,"serum levels of TNF-α, IL-B, IL-6, AST, ALT, SCr, BUN, and uric acid",[8],no significant changes
same,"lung, liver, and kidney indices compared with the control group",[8],no statistical difference
same,cardiac index,[8],no statistical difference
same,"pathological damage of major tissues (lung, liver, kidney, heart)",[9],no significant pathological damage
same,"mitochondrial structure in lung, liver, kidney, and heart tissues (transmission electron microscopy)",[10],No significant mitochondrial structural damage
same,IC50,"[20]; African green monkey, Cos-7 cells",1570 µM
same,IC50,"[20]; human, A549 cells",5770 µM
same,IC50,"[20]; human, hep G2 cells",1360 µM
same,cell viability,[11],no significant changes in cell viability
same,IC50 value relative to the PQ treatment group,[11]; A549 cells,increased by dozens of times
same,cell viability,[12],no significant changes in cell viability
same,IC50 value relative to the PQ treatment group,[12]; COS-7 cells,increased by dozens of times
same,cell viability,[13],no significant changes in cell viability
same,IC50 value relative to the PQ treatment group,[13]; Hep G2 cells,increased by dozens of times
same,intracellular ROS production,[14],no significant changes
same,intracellular ROS production,[15],no significant changes
same,intracellular ROS production,[16],no significant changes
same,apoptosis rate compared to the PQ group,[21],significantly reduced
same,apoptosis rate compared to the PQ group,[22],significantly reduced
same,apoptosis rate compared to the PQ group,[23],significantly reduced
same,electron microscopy findings after 8 hours,[24],"chloroplast stroma lysis, swelling of thylakoids and mitochondrial cristae"
same,electron microscopy findings after 24 hours,[24],"rupture of mesophyll cell nuclei, mitochondria, and chloroplast envelopes"
same,"chlorophyll content, maximum fluorescence quantum yield of PSII, Fv/Fm value, and SPAD",[24]; natural sunlight and air,significant decreases
